This note sets out measurements from US12116343B2, “Inhibitors of APOL1 and methods of using same” (Vertex Pharmaceuticals Incorporated, priority 2020, dated 2024).

For the test, the target named is T1, APOL1 G1 Protein (Homo sapiens, UniProt O14791, I384M/S342G).
T1 sequence (O14791 28-398 S342G/I384M): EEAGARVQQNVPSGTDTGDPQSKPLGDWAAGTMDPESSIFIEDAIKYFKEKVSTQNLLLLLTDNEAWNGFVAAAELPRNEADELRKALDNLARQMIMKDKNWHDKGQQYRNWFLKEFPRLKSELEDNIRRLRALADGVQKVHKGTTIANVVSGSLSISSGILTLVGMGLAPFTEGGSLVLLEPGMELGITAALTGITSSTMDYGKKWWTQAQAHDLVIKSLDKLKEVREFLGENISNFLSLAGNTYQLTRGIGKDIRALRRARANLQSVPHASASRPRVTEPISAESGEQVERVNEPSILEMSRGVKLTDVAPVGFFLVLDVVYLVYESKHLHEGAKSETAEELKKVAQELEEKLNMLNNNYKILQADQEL
Description: Trypanosoma brucei brucei lysis assay using APOL1 recombinant protein (AlamarBlue viability). In kind it is cell-based. To be noted: Trypanosoma brucei brucei lysis, recombinant APOL1, AlamarBlue; read-out: Trypanosoma Assay (IC50). The essentials:
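Bloodstream-form T. b. brucei Lister 427 VSG 221, 120,000 parasites/well in phenol red-free, FBS-free medium, lysed by recombinant APOL1 G1 with compound (10-point dose response, 0.1% DMSO final). Viability read by AlamarBlue fluorescence against a parasite standard curve.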
(In general: Alamar Blue is a resazurin reagent that responds to reducing activity.)
What is called IC50 is the concentration that gives 50% inhibition. In the case of `CC(CO)NC(=O)[C@H]1C[C@H](c2c(-c3ccc(F)cc3)[nH]c3c(F)cc(F)cc32)C1` (mixture of isomers) [Compound 13], the IC50 was below 250 nM. Consider `CC(CO)N(C)C(=O)[C@H]1C[C@H](c2c(-c3ccc(F)cc3)[nH]c3c(F)cc(F)cc32)C1` (mixture of isomers) [Compound 193], for which the IC50 fell in the range of 250 to 1000 nM. In the case of `CC1(NC(=O)[C@H]2C[C@H](c3c(-c4ccc(F)cc4)[nH]c4c(F)cc(F)cc43)C2)CCNC1=O` (mixture of isomers) [Compound 197] it was below 250 nM. `CC(O)(CO)CNC(=O)[C@H]1C[C@H](c2c(-c3ccc(F)cc3)[nH]c3c(F)cc(F)cc32)C1` (mixture of isomers) [Compound 216]: the IC50 is above 1000 nM. In the case of `CC1(CO)CCN1C(=O)[C@H]1C[C@H](c2c(-c3ccc(F)cc3)[nH]c3c(F)cc(F)cc32)C1` (mixture of isomers) [Compound 218], the half-maximal inhibitory concentration (IC50) is below 250 nM. With `COCCNC(=O)[C@H]1C[C@H](c2c(-c3ccc(F)cc3)[nH]c3c(F)cc(F)cc32)C1` [Compound 12], the IC50 lay in the range of 250 to 1000 nM.

In the case of `O=C(NCC(O)CO)[C@H]1C[C@H](c2c(-c3ccc(F)cc3)[nH]c3c(F)cc(F)cc32)C1` (stereo partly drawn) [Compound 14], the half-inhibitory concentration (IC50) was 250 to 1000 nM. `O=C(NC1CCOC1)[C@H]1C[C@H](c2c(-c3ccc(F)cc3)[nH]c3c(F)cc(F)cc32)C1` (stereo partly drawn) [Compound 15]: the IC50 fell in the range of 250 to 1000 nM. With `C[C@H](O)[C@@H](CO)NC(=O)[C@H]1C[C@H](c2c(-c3ccc(F)cc3)[nH]c3c(F)cc(F)cc32)C1` [Compound 16], the IC50 is below 250 nM. Consider `Cc1cc(NC(=O)[C@H]2C[C@H](c3c(-c4ccc(F)cc4)[nH]c4c(F)cc(F)cc43)C2)no1` [Compound 17], for which the IC50 is 250 to 1000 nM. Regarding `COC1CC1NC(=O)[C@H]1C[C@H](c2c(-c3ccc(F)cc3)[nH]c3c(F)cc(F)cc32)C1` (stereo partly drawn) [Compound 18], the 50% inhibitory concentration (IC50) is above 1000 nM. Consider `O=C(N[C@@H]1CCOC1)[C@H]1C[C@H](c2c(-c3ccc(F)cc3)[nH]c3c(F)cc(F)cc32)C1` [Compound 19], for which the IC50 lay within 250 to 1000 nM. For the compound `O=C(N[C@H]1C[C@H](O)C1)[C@H]1C[C@H](c2c(-c3ccc(F)cc3)[nH]c3c(F)cc(F)cc32)C1` [Compound 20], the IC50 is 250 to 1000 nM.

With `Cn1ccc(NC(=O)[C@H]2C[C@H](c3c(-c4ccc(F)cc4)[nH]c4c(F)cc(F)cc43)C2)n1` [Compound 22], the IC50 fell in the range of 250 to 1000 nM. Consider `O=C1NCCCC1NC(=O)[C@H]1C[C@H](c2c(-c3ccc(F)cc3)[nH]c3c(F)cc(F)cc32)C1` (stereo partly drawn) [Compound 23], for which the concentration for half-maximal inhibition (IC50) is 250 to 1000 nM. Turning to `Cc1cnc(NC(=O)[C@H]2C[C@H](c3c(-c4ccc(F)cc4)[nH]c4c(F)cc(F)cc43)C2)o1` [Compound 24], the IC50 was above 1000 nM.

As for `O=C1CCC(NC(=O)[C@H]2C[C@H](c3c(-c4ccc(F)cc4)[nH]c4c(F)cc(F)cc43)C2)C(=O)N1` (stereo partly drawn) [Compound 26], the half-inhibitory concentration (IC50) was in the range of 250 to 1000 nM. In the case of `C[C@@H](NC(=O)[C@H]1C[C@H](c2c(-c3ccc(F)cc3)[nH]c3c(F)cc(F)cc32)C1)C(N)=O` [Compound 28] it was above 1000 nM. The value for `CC(C)C(CO)NC(=O)[C@H]1C[C@H](c2c(-c3ccc(F)cc3)[nH]c3c(F)cc(F)cc32)C1` (stereo partly drawn) [Compound 29] was 250 to 1000 nM; that for `CC(C)CC(NC(=O)[C@H]1C[C@H](c2c(-c3ccc(F)cc3)[nH]c3c(F)cc(F)cc32)C1)C(N)=O` (stereo partly drawn) [Compound 30] was above 1000 nM. The value for `CC(C)(CO)NC(=O)[C@H]1C[C@H](c2c(-c3ccc(F)cc3)[nH]c3c(F)cc(F)cc32)C1` [Compound 31] was 250 to 1000 nM; that for `NC(=O)C(CO)NC(=O)[C@H]1C[C@H](c2c(-c3ccc(F)cc3)[nH]c3c(F)cc(F)cc32)C1` (stereo partly drawn) [Compound 32] was below 250 nM. With `O=C(NCC(F)(F)F)[C@H]1C[C@H](c2c(-c3ccc(F)cc3)[nH]c3c(F)cc(F)cc32)C1` [Compound 33], the 50% inhibitory concentration (IC50) is above 1000 nM. With `O=C(NCCn1cccc1)[C@H]1C[C@H](c2c(-c3ccc(F)cc3)[nH]c3c(F)cc(F)cc32)C1` [Compound 34], the concentration for half-maximal inhibition (IC50) lay within 250 to 1000 nM. For `Cc1ccn(CCNC(=O)[C@H]2C[C@H](c3c(-c4ccc(F)cc4)[nH]c4c(F)cc(F)cc43)C2)n1` [Compound 35], the half-inhibitory concentration (IC50) is 250 to 1000 nM. The value for `O=C(NCCn1cncn1)[C@H]1C[C@H](c2c(-c3ccc(F)cc3)[nH]c3c(F)cc(F)cc32)C1` [Compound 36] was below 250 nM.

On to `Cc1cc(CNC(=O)[C@H]2C[C@H](c3c(-c4ccc(F)cc4)[nH]c4c(F)cc(F)cc43)C2)on1` [Compound 37], for which the IC50 is 250 to 1000 nM.

In the case of `Cn1cc(CNC(=O)[C@H]2C[C@H](c3c(-c4ccc(F)cc4)[nH]c4c(F)cc(F)cc43)C2)cn1` [Compound 38], the concentration for half-maximal inhibition (IC50) was 250 to 1000 nM. The value for `O=C(NCCn1cnnc1)[C@H]1C[C@H](c2c(-c3ccc(F)cc3)[nH]c3c(F)cc(F)cc32)C1` [Compound 39] was above 1000 nM.

With `CS(=O)(=O)CCNC(=O)[C@H]1C[C@H](c2c(-c3ccc(F)cc3)[nH]c3c(F)cc(F)cc32)C1` [Compound 40], the IC50 was above 1000 nM.

In the case of `O=C(NCc1nnco1)[C@H]1C[C@H](c2c(-c3ccc(F)cc3)[nH]c3c(F)cc(F)cc32)C1` [Compound 171], the IC50 is below 250 nM. As for `Cc1nnc(CNC(=O)[C@H]2C[C@H](c3c(-c4ccc(F)cc4)[nH]c4c(F)cc(F)cc43)C2)o1` [Compound 172], the IC50 was below 250 nM. Turning to `Cc1noc(CNC(=O)[C@H]2C[C@H](c3c(-c4ccc(F)cc4)[nH]c4c(F)cc(F)cc43)C2)n1` [Compound 173], the half-maximal inhibitory concentration (IC50) was below 250 nM. On to `Cn1cncc1CNC(=O)[C@H]1C[C@H](c2c(-c3ccc(F)cc3)[nH]c3c(F)cc(F)cc32)C1` [Compound 174], for which the IC50 lay within 250 to 1000 nM.

In the case of `C[C@@H](O)CNC(=O)[C@H]1C[C@H](c2c(-c3ccc(F)cc3)[nH]c3c(F)cc(F)cc32)C1` [Compound 175], the IC50 is 250 to 1000 nM.

`O=C(NC[C@H](O)C(F)(F)F)[C@H]1C[C@H](c2c(-c3ccc(F)cc3)[nH]c3c(F)cc(F)cc32)C1` [Compound 176]: the half-maximal inhibitory concentration (IC50) was below 250 nM. The value for `O=C(NC[C@@H](O)C(F)(F)F)[C@H]1C[C@H](c2c(-c3ccc(F)cc3)[nH]c3c(F)cc(F)cc32)C1` [Compound 177] was 250 to 1000 nM; that for `O=C(N[C@H]1CC[C@@H]1O)[C@H]1C[C@H](c2c(-c3ccc(F)cc3)[nH]c3c(F)cc(F)cc32)C1` [Compound 178] was 250 to 1000 nM; that for `O=C(N[C@@H]1CCC[C@@H]1O)[C@H]1C[C@H](c2c(-c3ccc(F)cc3)[nH]c3c(F)cc(F)cc32)C1` [Compound 179] was 250 to 1000 nM. `O=C(N[C@H]1CC[C@H]1O)[C@H]1C[C@H](c2c(-c3ccc(F)cc3)[nH]c3c(F)cc(F)cc32)C1` [Compound 181]: the IC50 lay in the range of 250 to 1000 nM. The value for `O=C(N[C@@H]1CCC[C@H]1O)[C@H]1C[C@H](c2c(-c3ccc(F)cc3)[nH]c3c(F)cc(F)cc32)C1` [Compound 182] was above 1000 nM.

Regarding `O=C(NCC1(O)CC1)[C@H]1C[C@H](c2c(-c3ccc(F)cc3)[nH]c3c(F)cc(F)cc32)C1` [Compound 183], the IC50 is 250 to 1000 nM. `O=C(N[C@H]1COC[C@@H]1O)[C@H]1C[C@H](c2c(-c3ccc(F)cc3)[nH]c3c(F)cc(F)cc32)C1` [Compound 184]: the IC50 was 250 to 1000 nM.

Consider `O=C(NCC1(O)COC1)[C@H]1C[C@H](c2c(-c3ccc(F)cc3)[nH]c3c(F)cc(F)cc32)C1` [Compound 185], for which the IC50 is 250 to 1000 nM. `CC(CO)(CO)NC(=O)[C@H]1C[C@H](c2c(-c3ccc(F)cc3)[nH]c3c(F)cc(F)cc32)C1` [Compound 186]: the IC50 is below 250 nM. For the compound `O=C1OCC[C@@H]1NC(=O)[C@H]1C[C@H](c2c(-c3ccc(F)cc3)[nH]c3c(F)cc(F)cc32)C1` [Compound 188], the IC50 was 250 to 1000 nM.

Consider `O=C(NC[C@H]1CC[C@@H](CO)O1)[C@H]1C[C@H](c2c(-c3ccc(F)cc3)[nH]c3c(F)cc(F)cc32)C1` [Compound 189], for which the half-maximal inhibitory concentration (IC50) is above 1000 nM.

Consider `CC(C#N)(CO)NC(=O)[C@H]1C[C@H](c2c(-c3ccc(F)cc3)[nH]c3c(F)cc(F)cc32)C1` (stereo partly drawn) [Compound 191], for which the IC50 was below 250 nM. In the case of `O=C([C@H]1C[C@H](c2c(-c3ccc(F)cc3)[nH]c3c(F)cc(F)cc32)C1)N1CCC[C@@H]1CO` [Compound 192], the concentration for half-maximal inhibition (IC50) was below 250 nM. As for `O=C(NC1(CO)CCOC1)[C@H]1C[C@H](c2c(-c3ccc(F)cc3)[nH]c3c(F)cc(F)cc32)C1` (stereo partly drawn) [Compound 194], the IC50 was below 250 nM. For `O=C([C@H]1C[C@H](c2c(-c3ccc(F)cc3)[nH]c3c(F)cc(F)cc32)C1)N1CC[C@@H]1CO` [Compound 195], the half-maximal inhibitory concentration (IC50) was below 250 nM. As to `C#CC(CO)NC(=O)[C@H]1C[C@H](c2c(-c3ccc(F)cc3)[nH]c3c(F)cc(F)cc32)C1` (stereo partly drawn) [Compound 196], the IC50 was below 250 nM. In the case of `Cn1ncc(CNC(=O)[C@H]2C[C@H](c3c(-c4ccc(F)cc4)[nH]c4c(F)cc(F)cc43)C2)n1` [Compound 198], the 50% inhibitory concentration (IC50) is below 250 nM. With `O=C(NC(CO)C1CC1)[C@H]1C[C@H](c2c(-c3ccc(F)cc3)[nH]c3c(F)cc(F)cc32)C1` (stereo partly drawn) [Compound 199], the IC50 was 250 to 1000 nM.

Regarding `C[C@@H](CO)NC(=O)[C@H]1C[C@H](c2c(-c3ccc(F)cc3)[nH]c3c(F)cc(F)cc32)C1` [Compound 200], the half-inhibitory concentration (IC50) was below 250 nM. In the case of `N#CC(CO)NC(=O)[C@H]1C[C@H](c2c(-c3ccc(F)cc3)[nH]c3c(F)cc(F)cc32)C1` (stereo partly drawn) [Compound 201] it was below 250 nM. Regarding `O=C(NC1(CO)CC(F)(F)C1)[C@H]1C[C@H](c2c(-c3ccc(F)cc3)[nH]c3c(F)cc(F)cc32)C1` [Compound 202], the IC50 is below 250 nM.
